In patent US20200337304A1, “ANTIMICROBIAL PARTICLES AND SANITIZATION METHODS” (priority 2017, published 2020):

Legend:
Listeria innocua = test: Inactivation of bacteria in simulated wash water; format: cell-based
Protocol: The activity and inactivation of bacteria in simulated wash water exposed to the functionalized particles and conventional chlorine sanitizers were evaluated and compared. More than a 5-log reduction of Listeria innocua in wash water was obtained after a 0.5-min exposure to YCWPs based sanitizer at the concentration of 0.1 mg/mL. In comparison, the conventional chlorine-based sanitizer (sodium hypochlorite) needed 1.5 min to achieve a 5-log reduction. In the presence of organic matter (COD=2000 mg/L), more than 5 log reduction of Listeria innocua in wash water was obtained after 5 min exposure to YCWPs based sanitizer.

L. innocua 3-day biofilm = test: Inactivation of 3-day cultured biofilm on plastic surface, plate counting assay; format: cell-based, Listeria innocua; settings: 1-hour exposure
Protocol: FIG. 6A is a graph illustrating inactivation of L. innocua in 3-day biofilm after 1-hour exposure: (a) metabolic activity of biofilm; (b) results of plate counting assay
The antimicrobial activity was characterized based on the metabolic activity of the biofilm measured using Resazurin and a plate counting assay.
The metabolic activity of biofilm after a 1-hour exposure to the particulate sanitizer was evaluated. The time required to achieve maximum fluorescence intensity indicated the relative level of metabolic activity of bacterial cells under different incubation conditions. Listeria biofilms that were incubated with PBS were treated as a control. […] The conventional sanitizer (sodium hypochlorite) only achieved 3-log reduction after a 1-hour exposure.
Pre-formed biofilms were treated with either a selected particle-based sanitizer or with a conventional sanitation procedure for the sanitation of a food contract surface. […] Quantification of the treatment was assessed based on measuring the changes in the metabolic activity of bacterial cells. Quantification of the residual biomass was conducted using crystal violet staining and calcofluor labeling and the standard plate counting of the bacterial cells after dispersing the biofilms using an ultrasonic washer.

E. coli O157:H7 = test: Inactivation of bacteria on fresh produce (lettuce leaf) surfaces; format: cell-based, Escherichia coli O157:H7; settings: Example 2; 20-min exposure, YCWPs@halamine 0.25 mg/ml; sodium hypochlorite 20 ppm free chlorine
Protocol: FIG. 6B is a graph illustrating inactivation of E. coli O157:H7 on fresh produce surfaces after 20-min exposure to YCWPs@halamine (0.25 mg/ml).
The inactivation of bacteria on fresh produce surfaces was also evaluated. These YCWPs based sanitizer was also found to be effective in causing more than 5 log reductions in E. coli O157:H7 on the surface of lettuce leaves as shown in FIG. 6B. The conventional chlorine-based sanitizer (sodium hypochlorite, 20 ppm free chlorine) achieved less than 2-log reduction of the inoculated bacteria.
To inoculate fresh produce, samples (e.g., spinach, lettuce, tomato, and orange) were first rinsed with 70% ethanol and dried at 25° C. before sample preparation. Fresh produce samples were then prepared by cutting spinach and lettuce leaves into disks with 1 cm of diameter and tomato and orange skins into squares of 9 cm^2. […]
After inoculation and incubation, the meat and fresh produce samples were transferred to a simulated wash bath with added particle-based sanitizers. […] The samples were stirred in a shaking bath a speed of 250 rpm for a pre-determined period (1, 2, 5, and 10 min). […]
To quantify the reduction in microbial count, the samples after treatment were transferred to sterile tubes containing silicon-carbide beads and 10 mL of PBS, and vortexed for 60 seconds to recover the attached bacteria. […]

**Q.** With `OCl` [sodium hypochlorite] as the compound, how does the “reduction of bacterial population in wash water in the presence of organic matter” value (Listeria innocua; COD=2000 mg/L, 20 ppm free chlorine, 20 minutes of exposure) read?
**A.** did not reduce the bacterial population

**Q.** What about the “time needed to achieve a 5-log reduction of Listeria innocua in wash water” value (Listeria innocua; simulated wash water) of the same compound?
**A.** 1.5 min

**Q.** What about the “reduction of the bacterial population in the 3-day biofilm” value (L. innocua 3-day biofilm) of the same compound?
**A.** 3 log

**Q.** And the “reduction in E. coli O157:H7 on the surface of lettuce leaves” value (E. coli O157:H7)?
**A.** less than 2 log
